Experimental data taken from ChEMBL document CHEMBL5543110, “Engineering of a Biologically Active Glycosylated Glucagon-Like Peptide-1 Analogue” (J Med Chem, 2024).
The source made the active and inactive calls. The calls are words filed in the database; no cut-off is given here.

Columns and labels:
[1] = tested on: Mus musculus; experiment: Hypoglycemic activity in six hrs fasted C57BL6/J mouse assessed as reduction in blood glucose level at 30 nmol/kg, sc measured upto 120 mins post injection by glucometer analysis; type: functional, organism-based
[2] = tested on: Mus musculus; experiment: Hypoglycemic activity in six hrs fasted C57BL6/J mouse assessed as improvement in glucose disposal at 30 nmol/kg, sc pre-administered with compound for 60 mins followed by glucose addition and measured upto 120 mins; type: functional, organism-based; details: time <= 180.0 min
[3] = molecular target: Glucagon-like peptide 1 receptor (Homo sapiens) (UniProt P43220); experiment: Agonist activity human GLP-1R stably expressed in HEK293-A cells assessed as […] in cAMP accumulation incubated for 30 mins by fluorescence resonance energy transfer analysis; type: functional, cell-based; details: filed as agonist
Glucagon-like peptide 1 receptor (Homo sapiens), sequence (P43220 whole entry): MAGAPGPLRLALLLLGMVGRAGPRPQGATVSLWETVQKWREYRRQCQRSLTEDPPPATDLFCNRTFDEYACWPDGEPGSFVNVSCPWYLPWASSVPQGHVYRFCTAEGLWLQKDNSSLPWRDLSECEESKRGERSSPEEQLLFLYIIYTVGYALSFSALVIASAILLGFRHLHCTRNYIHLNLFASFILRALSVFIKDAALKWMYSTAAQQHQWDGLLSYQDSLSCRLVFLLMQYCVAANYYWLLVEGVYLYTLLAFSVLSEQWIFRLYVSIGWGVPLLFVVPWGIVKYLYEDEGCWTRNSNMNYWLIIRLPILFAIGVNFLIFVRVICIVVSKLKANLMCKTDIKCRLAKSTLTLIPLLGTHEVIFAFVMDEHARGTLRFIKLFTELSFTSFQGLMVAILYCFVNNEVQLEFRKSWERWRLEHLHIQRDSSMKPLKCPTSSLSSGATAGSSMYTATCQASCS

## SEMAGLUTIDE
[1]
  Activity: Active

## CC[C@H](C)[C@H](NC(=O)[C@H](Cc1ccccc1)NC(=O)[C@H](CCC(=O)O)NC(=O)[C@H](CC(=O)N[C@@H]1O[C@H](CO)[C@@H](O[C@@H]2O[C@H](CO)[C@@H](O[C@@H]3O[C@H](CO[C@H]4O[C@H](CO)[C@@H](O)[C@H](O)[C@@H]4O[C@@H]4O[C@H](CO)[C@@H](O[C@@H]5O[C@H](CO[C@]6(C(=O)O)C[C@H](O)[C@@H](NC(C)=O)[C@H]([C@H](O)[C@H](O)CO)O6)[C@H](O)[C@H](O)[C@H]5O)[C@H](O)[C@H]4NC(C)=O)[C@@H](O)[C@H](O[C@@H]4O[C@H](CO)[C@H](O)[C@@H](O)[C@H]4O[C@@H]4O[C@H](CO)[C@@H](O[C@@H]5O[C@H](CO[C@]6(C(=O)O)C[C@H](O)[C@@H](NC(C)=O)[C@H]([C@H](O)[C@H](O)CO)O6)[C@H](O)[C@H](O)[C@H]5O)[C@H](O)[C@H]4NC(C)=O)[C@@H]3O)[C@H](O)[C@H]2NC(C)=O)[C@H](O)[C@H]1NC(C)=O)NC(=O)[C@H](C)NC(=O)[C@H](C)NC(=O)[C@H](CCC(N)=O)NC(=O)CNC(=O)[C@H](CCC(=O)O)NC(=O)[C@H](CC(C)C)NC(=O)[C@H](Cc1ccc(O)cc1)NC(=O)[C@H](CO)NC(=O)[C@H](CO)NC(=O)[C@@H](NC(=O)[C@H](CC(=O)O)NC(=O)[C@H](CO)NC(=O)[C@@H](NC(=O)[C@H](Cc1ccccc1)NC(=O)[C@@H](NC(=O)CNC(=O)[C@H](CCC(=O)O)NC(=O)C(C)(C)NC(=O)[C@@H](N)Cc1c[nH]cn1)[C@@H](C)O)[C@@H](C)O)C(C)C)C(=O)N[C@@H](C)C(=O)N[C@@H](Cc1c[nH]c2ccccc12)C(=O)N[C@@H](CC(C)C)C(=O)N[C@H](C(=O)N[C@@H](CCCNC(=N)N)C(=O)NCC(=O)N[C@@H](CCCNC(=N)N)C(=O)NCC(=O)O)C(C)C
[1]
  Activity: Active
[2]
  Activity: Active
[3]
  Activity: Active
